Patent publication US10738061B2, “Inhibitors of RAD52 recombination protein and methods using same” (Drexel University, priority 2015, dated 2020)

Experiments:
RAD52 [1] = target: T1, RAD52 (Homo sapiens, UniProt P43351); assay: Fluorescence-quenching assay for RAD52 ssDNA annealing (HTS); assay type: biochemical
T1 construct: made in house
T1 sequence (P43351 1-418): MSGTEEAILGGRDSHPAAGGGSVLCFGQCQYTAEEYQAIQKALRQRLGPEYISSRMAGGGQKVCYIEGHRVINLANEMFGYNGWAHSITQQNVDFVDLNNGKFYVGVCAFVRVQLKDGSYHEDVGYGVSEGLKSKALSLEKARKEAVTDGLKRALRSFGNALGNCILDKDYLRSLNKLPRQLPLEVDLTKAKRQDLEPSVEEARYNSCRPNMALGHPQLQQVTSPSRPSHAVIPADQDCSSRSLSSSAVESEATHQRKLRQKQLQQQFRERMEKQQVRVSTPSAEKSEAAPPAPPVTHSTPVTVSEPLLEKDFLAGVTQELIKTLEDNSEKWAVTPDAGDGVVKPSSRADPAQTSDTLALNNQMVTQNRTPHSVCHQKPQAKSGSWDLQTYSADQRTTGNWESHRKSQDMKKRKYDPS
Method: Tailed dsDNA substrate was prepared by thermal annealing of ssDNA oligonucleotides 337-F and 1337-BHQ1 (SEQ ID NO: 2) containing Fluorescein and Black Hole Quencher 1 residues at the 5′ and 3′ end, respectively. […] The fluorescence intensity was measured in a 3-mm quartz cuvette (Starna Cells) using a FluoroMax-3 (HORIBA) fluorimeter with 492 nm excitation wavelength and 520 nm emission wavelength at 30° C. for at least 2000 s.
The HTS was performed using the 8 channel BioRAPTR 1536 (Beckman) for reagent dispensing. […] Wells containing no RAD52 enzyme were used to as positive control, and data were analyzed using Genedata.
A fluorescence-quenching assay was used to screen for inhibitors of RAD52 ssDNA annealing activity (FIGS. 1A-1E). […] Annealing promoted by RAD52 between ssDNA and tdsDNA led to displacement of the FLU-carrying DNA strand from the tdsDNA and in an increase in fluorescence due to secession of fluorescence quenching by the BHQ1 group (FIG. 1B).
The fluorescence-quenching assay was optimized for 1,536 well plates (Z′ Avg=0,64). […] The hits were further analyzed for a concentration dependence in inhibiting of RAD52 and by testing their DNA binding affinity using the acridine orange assay.

RAD52 [2] = target: T1, RAD52; assay: D-loop formation (DNA pairing) by RAD52; assay type: biochemical; conditions: three independent repeats, read-out: Inhibition of DNA pairing (D-loop formation), IC50
Method: Cisplatin was purchased from Sigma-Aldrich. Human RAD52 and RAD51 were purified as described (Bugreev et al., 2005, Mol. Cell. Biol. 33, 387-395). The oligonucleotides (Table 2) were purchased from IDT, Inc and further purified by electrophoresis (Rossi et al., 2010, Methods 51, 336-346). Supercoiled pUC19 plasmid DNA was purified using Qiagen kits. All DNA concentrations are expressed as moles of nucleotide.
To form RAD52 nucleoprotein complexes, RAD52 (0.45 μM) was incubated with a ^32P-labeled ssDNA (oligo 90/SEQ ID NO: 4) (3 μM, nt) in buffer containing 25 mM Tris-Acetate, pH 7.5, 100 μg·ml-1 BSA, 0.3 mM magnesium acetate, and 2 mM DTT at 37° C. for 15 min. To form RAD51 nucleoprotein filament, RAD51 (1 μM) was incubated with ^32P-labeled ssDNA (3 μM, nt) in buffer containing 25 mM Tris-Acetate, pH 7.5, 100 μg·ml-1 BSA, 1 mM calcium chloride, 1 mM ATP and 2 mM DTT for 15 min at 37° C. Then inhibitors were added to both reactions and incubation continued for 15 min at 37° C. D-Loop formation was initiated by addition of supercoiled pUC19 DNA (50 μM, nucleotides) and was carried out 15 min at 37° C. The reactions were stopped and deproteinized by the addition of 1.5% SDS and proteinase K (0.8 mg/ml) for 15 min at 37° C., mixed with a 0.10 volume of loading buffer (70% glycerol, 0.1% bromphenol blue), and analyzed by electrophoresis in 1% agarose gels in TAE buffer (40 mM Tris acetate, pH 8.3, and 1 mM EDTA) at 5 V/cm for 3 h. The gels were dried on DEAE-81 paper (Whatman) and the yield of D-loops quantified using a Storm 840 PhosphorImager and ImageQuant 5.2 (GE Healthcare). The D-loop yield was expressed as a percentage of plasmid DNA carrying D-loops relative to the total plasmid DNA.
IC50 values were calculated using GraphPad Prism V5.0 software. The data were obtained from three independent repeats of experiments.
The inhibitory effect of the 70 selected compounds were tested using the D-loop assay, in which RAD52 promotes pairing between 32P-labeled ssDNA and homologous supercoiled plasmid pUC19 DNA (FIG. 1D); the product of the reaction, D-loops, were analyzed by electrophoresis in 1% agarose gels. […] Then, the effects of each of the 17 compounds on RAD52-dependent D-loop formation were measured in a concentration dependent manner.

[3] = tested on: UWB1.289 (BRCA1-) and UWB1.289 (+BRCA1) cells; assay: Luminescent cell viability assay, BRCA1-deficient versus proficient cells; assay type: cell-based, Human; conditions: 9 days exposure
Method: (§1) BxPC3 cells were kept in RPMI 1640 (ATCC) media supplemented with 10% FBS (Gibco). Capan-1/BxPC3 Capan-1 cells were kept in IMDM (ATCC) media containing 20% FBS (GIBCO). […] cells were kept in 48.5% RPMI1640 (ATCC), 48.5% MEGM (Clonetics/Lonza, MEGM kit, CC-3150) and 3% FBS (GIBCO) respectively. Cells in log-phase were harvested and 100 μl cell suspensions were replated in a 96-well plate with a final density of 4000 cells/well. After overnight growth, cells were treated with indicated concentrations of compounds. Media containing the invariant concentration of compounds were refreshed every 3 days until cells were finally lysed by 30 μl/well of Promega CellTiter-Glo reagents and read on a Promega GloMax 96 reader on day 10 (9 days exposure).
(§2) BxPC3 cells were kept in RPMI 1640 (ATCC) media supplemented with 10% FBS (Gibco); Capan-1 cells were kept in IMDM (ATCC) media containing 20% FBS (GIBCO); UWB1.298 and UWB1.298 (BRCA1+) cells were kept in 48.5% RPMI1640 (ATCC), 48.5% MEGM (Clonetics/Lonza, MEGM kit, CC-3150) and 3% FBS (GIBCO) respectively. […] Media containing the invariant concentration of compounds were refreshed every 3 days until cells were finally lysed by 30 μl/well of Promega CellTiter-Glo reagents and read on a Promega GloMax 96 reader on day 10 (9 days exposure). […]

[4] = tested on: Capan-1 (BRCA2-) and BxPC3 (BRCA2+) cells; assay: Luminescent cell viability assay, BRCA2-deficient versus proficient cells; assay type: cell-based, Human; conditions: 9 days exposure
Method: as §1, §2

[5] = tested on: BRCA1/2-deficient cell lines; assay: Growth of BRCA1/2-deficient cell lines (summary over tested lines); assay type: cell-based, Human
Method: as §1
as §1, with “(Gibco);” for “(Gibco). Capan-1/BxPC3”, “(GIBCO);” for “(GIBCO).”, “exposure). Promega CellTiter-Glo protocol is available on the web: www dot promega dot com/resources/protocols/technical-bulletins/0/celltiter-glo-luminescent-cell-viability-assay-protocol/” for “exposure).”
MDA-MB-436 cells were cultured in RPMI+10% FBS. BRCA-proficient and BRCA-deficient cells were plated on day 0 in triplicate at 5,000 cells/well. […] Cells were counted on day 4 on a hemocytometer, using Trypan Blue exclusion, and immediately were plated in a clonogenic assay at a density of 500 cells/well in a 6 well plate, in RPMI+10% FBS. […]

[6] = tested on: MDA-MB-436 (BRCA1-) and MDA-MB-436 (BRCA1+) cells; assay: Clonogenic survival assay; assay type: cell-based, Human
Method: MDA-MB-436 cells were cultured in RPMI+10% FBS. BRCA-proficient and BRCA-deficient cells were plated on day 0 in triplicate at 5,000 cells/well. […] Cells were counted on day 4 on a hemocytometer, using Trypan Blue exclusion, and immediately were plated in a clonogenic assay at a density of 500 cells/well in a 6 well plate, in RPMI+10% FBS. After two weeks, the colonies were fixed/stained with 0.05% of 10 mg/ml ethidium bromide in 50% ethanol and visualized with Alphaimager gel imager (Alpha Innotech).
Likewise, the effects of RAD52 inhibitors on the growth of BRCA1-deficient (UWB1.289 BRCA1^−) and BRCA1-proficient (UWB1.289 BRCA^+) cells were tested. 7 out 14 tested RAD52 inhibitors preferentially suppress the growth of BRCA1-deficient cells. Importantly, these 7 compounds included the 5 compounds that inhibited the growth of BRCA2-deficient cells (FIGS. 3E-3H). The effects of the 14 RAD52 inhibitors were tested on the survival of another BRCA1-deficient cells, and MDA-MB-436 cells. […] BRCA1-deficiency in these cells is due to constitutive downregulation of this protein.

SMILES | IC50 (RAD52 [1]) [µM] | IC50 (RAD52 [2]) [µM] | effect on growth of BRCA1-deficient UWB1.289 cells versus UWB1.289 (+BRCA1) [3] | effect on growth of BRCA2-deficient Capan-1 cells versus BxPC3 [4] | preferential inhibition of BRCA1/2-deficient cell lines (summary) [5] | effect on survival of BRCA1-deficient MDA-MB-436 cells versus MDA-MB-436 (BRCA1+) [6]
Cn1nc(-c2ccc(Cl)cc2)c2cc(C(=O)NCCCN3CCCCCC3)sc21 [D-I11, N-(3-(azepan-1-yl)propyl)-3-(4-chlorophenyl)-1-methyl-1H-thieno[2,3-c]pyrazole-5-carboxamide] | 4.1 | 6.7 ± 0.78 |  |  |  | 
CCCN(CCC)CCCNC(=S)Nc1ccc2nc(N3CCN(C)CC3)cc(C)c2c1 [D-G11, 1-(3-(dipropylamino)propyl)-3-(4-methyl-2-(4-methylpiperazin-1-yl)quinolin-6-yl)thiourea] | 6 | 8.9 ± 1.6 | showed activity | showed activity |  | 
CCN(CC)CCCN(Cc1cc2cc3c(cc2[nH]c1=O)OCO3)C(=S)NCCCN(C)C [D-A13, 1-(3-(diethylamino)propyl)-3-(3-(dimethylamino)propyl)-1-((6-oxo-5,6-dihydro-[1,3]dioxolo[4,5-g]quinolin-7-yl)methyl)thiourea] | 5.2 | 13.6 ± 0.64 |  |  |  | 
CCCCN(CC)CCNC(=O)c1cc2c(-c3ccc(Cl)cc3)nn(C)c2s1 [D-I09, N-(2-(butyl(ethyl)amino)ethyl)-3-(4-chlorophenyl)-1-methyl-1H-thieno[2,3-c]pyrazole-5-carboxamide] | 6.8 | 10.6 ± 1.4 |  |  |  | 
COc1ccccc1Nc1nc(NCCCO)c2ccccc2n1 [D-K17, 3-((2-((2-methoxyphenyl)amino)quina-zolin-4-yl)amino)propan-1-ol] | 2.9 | 4.8 ± 0.85 |  |  | preferentially inhibited at least two BRCA1/2-deficient cell lines | 
CCN1CCN(CCCNC(=S)Nc2ccc3nc(N(C)CCN)cc(C)c3c2)CC1 [D-E05, 1-(2-((2-aminoethyl)(methyl)amino)-4-methylquinolin-6-yl)-3-(3-(4-ethylpiperazin-1-yl)propyl)thiourea] | 1.7 | 11.3 ± 0.35 |  |  |  | 
COc1ccc(OC)c(Nc2nc(NCCO)c3ccccc3n2)c1 [D-I05, 2-((2-((2,5-dimethoxyphenyl)amino)quinazolin-4-yl)amino)ethan-1-ol] | 4.3 | 8.8 ± 0.42 |  |  | preferentially inhibited at least two BRCA1/2-deficient cell lines | 
Cc1ccc(-c2nc(C(=O)NCCCN3CCOCC3)cc3c2[nH]c2ccccc23)cc1 [D-C19, N-(3-morpholinopropyl)-1-(p-tolyl)-9H-pyrid[3,4-b]indole-3-carboxamide] | 2 | 4.3 ± 0.35 |  |  |  | 
CN1CCN(CCCNC(=O)c2cc3c(-c4ccc(Cl)cc4)nn(C)c3s2)CC1 [D-I07, 3-(4-chlorophenyl)-1-methyl-N-(3-(4-methylpiperazin-1-yl)propyl)-1H-thieno[2,3-c]pyrazole-5-carboxamide] | 2 | 2.7 ± 0.35 |  |  |  | 
Cc1cc(N2CCN(C)CC2)nc2ccc(NC(=S)NCCCN3CCN(C)CC3)cc12 [D-I01, 1-(4-methyl-2-(4-methylpiperazin-1-yl)quinolin-6-yl)-3-(3-(4-methylpiperazin-1-yl)propyl)thiourea] | 3.6 | 15.4 ± 0.57 |  |  |  | 
CCCCN(CC)CCCNC(=S)Nc1ccc2nc(N3CCN(C)CC3)cc(C)c2c1 [D-G09, 1-(3-(butyl(ethyl)amino)propyl)-3-(4-methyl-2-(4-methylpiperazin-1-yl)quinolin-6-yl)thiourea] | 2 | 14.8 ± 2.47 | showed an inhibitory effect | showed an inhibitory effect |  | showed an inhibitory effect
Cc1ccc(C(=O)c2oc3ccc(Cl)cc3c2NC(=O)CN2CCN(C)CC2)cc1 [D-C17, N-(5-chloro-2-(4-methylbenzoyl)benzofuran-3-yl)-2-(4-methylpiperazin-1-yl)acetamide] | 6 | 17.6 ± 0.78 |  |  |  | 
Cc1c(C(=O)Nc2ccc(S(=O)(=O)N(C)C3CCN(C)CC3)cc2)oc2c(Cl)cccc12 [D-A21, 7-chloro-3-methyl-N-(4-(N-methyl-N-(1-methylpiperidin-4-yl)sulfamoyl)phenyl) benzofuran-2-carboxamide] | 9.8 | 16.2 ± 0.42 |  |  |  | 
Cn1nc(-c2ccc(Cl)cc2)c2cc(C(=O)NCCCN3CCCC3)sc21 [D-I19, 3-(4-chlorophenyl)-1-methyl-N-(3-(pyrrolidin-1-yl)propyl)-1H-thieno[2,3-c]pyrazole-5-carboxamide] | 3.5 | 4.1 ± 0.14 |  |  |  | 
COc1ccc(-c2nc(C(=O)NCCCN3CCOCC3)cc3c2[nH]c2ccccc23)cc1OC [D-A19, 1-(3,4-dimethoxyphenyl)-N-(3-morpholinopropyl)-9H-pyrido[3,4-b]indole-3-carboxamide] | 4.8 | 7.2 ± 0.28 |  |  |  | 
